Each structure is given as a SMILES string.

The assay has as its system MV-4-11 cells. Put plainly: Gene expression microarray analysis (Affymetrix PrimeView) and GSEA. The settings on record: ProbeSet 11725217_a_at; LIST B. Also noted: RFU PODN (11730768_x_at) / Fold change /veh PODN (11730768_x_at) / RFU LINC00158 (11744669_a_at) / Fold change /veh LINC00158 (11744669_a_at) / RFU DUSP10 (11751237_a_at) / Fold change /veh DUSP10 (11751237_a_at) / RFU ID3 (11757404_x_at) / Fold change /veh ID3 (11757404_x_at) / RFU PLEKHG5 (11737974_s_at) / Fold change /veh PLEKHG5 (11737974_s_at) / RFU LRRC4B (11730491_at) / Fold change /veh LRRC4B (11730491_at) / RFU GIMAP4 (11747438_a_at) / Fold change /veh GIMAP4 (11747438_a_at) / RFU KRT8 (11758183_x_at) / Fold change /veh KRT8 (11758183_x_at) / RFU CNN1 (11734310_a_at) / Fold change /veh CNN1 (11734310_a_at) / RFU VPS37D (11726825_at) / Fold change /veh VPS37D (11726825_at) / RFU C10orf10 (11716522_x_at) / Fold change /veh C10orf10 (11716522_x_at) / RFU KIR2DL2 /// KIR2DL4 /// KIR2DL5A /// KIR2DL5B /// KIR2DS1 /// KIR2DS2 /// KIR2DS3 /// KIR2DS4 /// KIR3DL3 /// KIR3DL3 /// KIR3DS1 (11738374_at) / Fold change /veh KIR2DL2 /// KIR2DL4 /// KIR2DL5A /// KIR2DL5B /// KIR2DS1 /// KIR2DS2 /// KIR2DS3 /// KIR2DS4 /// KIR3DL3 /// KIR3DL3 /// KIR3DS1 (11738374_at) / RFU C1QL1 (11718748_at) / Fold change /veh C1QL1 (11718748_at) / RFU TMPRSS4 (11747572_a_at) / Fold change /veh TMPRSS4 (11747572_a_at) / RFU HAMP (11756126_x_at) / Fold change /veh HAMP (11756126_x_at) / RFU RNFT2 (11725882_a_at) / Fold change /veh RNFT2 (11725882_a_at) / RFU NR4A2 (11747474_a_at) / Fold change /veh NR4A2 (11747474_a_at) / RFU ABCC12 (11746883_a_at) / Fold change /veh ABCC12 (11746883_a_at) / RFU TMEM136 (11760407_x_at) / Fold change /veh TMEM136 (11760407_x_at) / RFU CLDN22 /// WWC2 (11732394_at) / Fold change /veh CLDN22 /// WWC2 (11732394_at) / RFU HLA-DPB1 (11760878_x_at) / Fold change /veh HLA-DPB1 (11760878_x_at) / RFU SPINT1 (11716480_a_at) / Fold change /veh SPINT1 (11716480_a_at) / RFU GAP43 (11754022_s_at) / Fold change /veh GAP43 (11754022_s_at) / RFU A4GNT (11735810_at) / Fold change /veh A4GNT (11735810_at) / RFU PRB3 (11715151_x_at) / Fold change /veh PRB3 (11715151_x_at) / RFU TUBB4B (11761932_at) / Fold change /veh TUBB4B (11761932_at) / RFU CAPN14 (11732068_a_at) / Fold change /veh CAPN14 (11732068_a_at) / RFU TMCC2 (11721928_a_at) / Fold change /veh TMCC2 (11721928_a_at) / RFU IRGQ (11745062_a_at) / Fold change /veh IRGQ (11745062_a_at) / RFU FAM174B (11720279_a_at) / Fold change /veh FAM174B (11720279_a_at) / RFU TMPRSS4 (11748680_a_at) / Fold change /veh TMPRSS4 (11748680_a_at) / RFU FAM212B (11763350_a_at) / Fold change /veh FAM212B (11763350_a_at) / RFU PLEKHG5 (11743358_a_at) / Fold change /veh PLEKHG5 (11743358_a_at) / RFU ZSCAN30 (11745921_a_at) / Fold change /veh ZSCAN30 (11745921_a_at) / RFU CMKLR1 (11741424_a_at) / Fold change /veh CMKLR1 (11741424_a_at) / RFU LOC101060620 /// MAPK8IP1 (11723275_at) / Fold change /veh LOC101060620 /// MAPK8IP1 (11723275_at) / RFU SPTSSB (11747773_x_at) / Fold change /veh SPTSSB (11747773_x_at) / RFU PRSS12 (11739890_at) / Fold change /veh PRSS12 (11739890_at) / RFU BIN1 (11741810_x_at) / Fold change /veh BIN1 (11741810_x_at) / RFU WNT11 (11732464_a_at) / Fold change /veh WNT11 (11732464_a_at) / RFU C10orf10 (11716521_a_at) / Fold change /veh C10orf10 (11716521_a_at) / RFU C5orf56 (11738089_at) / Fold change /veh C5orf56 (11738089_at) / RFU CYB561 (11721691_x_at) / Fold change /veh CYB561 (11721691_x_at) / RFU ANKRD19P (11752326_a_at) / Fold change /veh ANKRD19P (11752326_a_at) / RFU OR2T12 /// OR2T33 /// OR2T8 (11738714_s_at) / Fold change /veh OR2T12 /// OR2T33 /// OR2T8 (11738714_s_at) / RFU VCAN (11748164_a_at) / Fold change /veh VCAN (11748164_a_at) / RFU JSRP1 (11732532_at) / Fold change /veh JSRP1 (11732532_at) / RFU KRTAP10-11 (11738290_x_at) / Fold change /veh KRTAP10-11 (11738290_x_at) / RFU MYO3A (11730013_a_at) / Fold change /veh MYO3A (11730013_a_at) / RFU EBF3 (11725865_a_at) / Fold change /veh EBF3 (11725865_a_at) / RFU CAMK2N1 (11719241_x_at) / Fold change /veh CAMK2N1 (11719241_x_at) / RFU C5orf56 (11738088_a_at) / Fold change /veh C5orf56 (11738088_a_at) / RFU OLFML3 (11715873_a_at) / Fold change /veh OLFML3 (11715873_a_at) / RFU LOC100653217 /// NTM (11731650_a_at) / Fold change /veh LOC100653217 /// NTM (11731650_a_at) / RFU MAPK11 (11762145_a_at) / Fold change /veh MAPK11 (11762145_a_at) / RFU FIZ1 (11724087_x_at) / Fold change /veh FIZ1 (11724087_x_at) / RFU OASL (11726364_x_at) / Fold change /veh OASL (11726364_x_at) / RFU SOX15 (11748057_x_at) / Fold change /veh SOX15 (11748057_x_at) / RFU CD79A (11719716_a_at) / Fold change /veh CD79A (11719716_a_at) / RFU HIST1H1D (11736915_at) / Fold change /veh HIST1H1D (11736915_at) / RFU CASKIN2 (11723855_a_at) / Fold change /veh CASKIN2 (11723855_a_at) / RFU LOC730098 (11760151_x_at) / Fold change /veh LOC730098 (11760151_x_at) / RFU OR4N2 (11742367_at) / Fold change /veh OR4N2 (11742367_at) / RFU PRRT2 (11749266_a_at) / Fold change /veh PRRT2 (11749266_a_at) / RFU SNX32 (11753110_a_at) / Fold change /veh SNX32 (11753110_a_at) / RFU CDHR5 (11726645_a_at) / Fold change /veh CDHR5 (11726645_a_at) / RFU RCAN1 (11760418_a_at) / Fold change /veh RCAN1 (11760418_a_at) / RFU FAM167A (11723789_a_at) / Fold change /veh FAM167A (11723789_a_at) / RFU FAM26E (11764081_at) / Fold change /veh FAM26E (11764081_at) / RFU ISYNA1 (11749810_s_at) / Fold change /veh ISYNA1 (11749810_s_at) / RFU ACY1 (11761880_at) / Fold change /veh ACY1 (11761880_at) / RFU 11764098_at / Fold change /veh 11764098_at / RFU SAMD14 (11745864_x_at) / Fold change /veh SAMD14 (11745864_x_at) / RFU NPB (11741838_a_at) / Fold change /veh NPB (11741838_a_at) / RFU TMPRSS6 (11731388_a_at) / Fold change /veh TMPRSS6 (11731388_a_at) / RFU KRTAP10-2 (11738614_at) / Fold change /veh KRTAP10-2 (11738614_at) / RFU ARHGAP8 /// PRR5-ARHGAP8 (11727945_x_at) / Fold change /veh ARHGAP8 /// PRR5-ARHGAP8 (11727945_x_at) / RFU KRTAP5-7 /// NADSYN1 (11734609_at) / Fold change /veh KRTAP5-7 /// NADSYN1 (11734609_at) / RFU RASL12 (11751679_a_at) / Fold change /veh RASL12 (11751679_a_at) / RFU CDKN2B (11736163_a_at) / Fold change /veh CDKN2B (11736163_a_at) / RFU PRF1 (11729649_at) / Fold change /veh PRF1 (11729649_at) / RFU, ZNF638 /// ZNF638-IT1 / Fold change vs veh, ZNF638 /// ZNF638-IT1 / RFU, PANK3 / Fold change vs veh, PANK3 / RFU, SH3YL1 / Fold change vs veh, SH3YL1 / RFU, ZEB2 / Fold change vs veh, ZEB2 / RFU, NRIP1 / Fold change vs veh, NRIP1 / RFU, PTTG1IP / Fold change vs veh, PTTG1IP / RFU, CAPN2 / Fold change vs veh, CAPN2 / RFU, MED14 / Fold change vs veh, MED14 / RFU, SNORA58 / Fold change vs veh, SNORA58 / RFU, C1orf63 / Fold change vs veh, C1orf63 / RFU, LRRFIP1 / Fold change vs veh, LRRFIP1 / RFU, NDUFAF7 / Fold change vs veh, NDUFAF7 / RFU, SLC12A2 / Fold change vs veh, SLC12A2 / RFU, IBTK / Fold change vs veh, IBTK / RFU, ESF1 / Fold change vs veh, ESF1 / Fold change vs veh, TMEM50B / RFU, TAOK1 / Fold change vs veh, TAOK1 / RFU, ACBD3 / Fold change vs veh, ACBD3 / RFU, TMA16 / Fold change vs veh, TMA16 / RFU, RWDD3 / Fold change vs veh, RWDD3 / RFU, BCAT1 / Fold change vs veh, BCAT1 / RFU, EDEM3 / Fold change vs veh, EDEM3 / RFU, TMEM33 / Fold change vs veh, TMEM33 / RFU, WDR75 / Fold change vs veh, WDR75 / RFU, AHCTF1 / Fold change vs veh, AHCTF1 / RFU, TFRC / Fold change vs veh, TFRC / RFU, ZDHHC17 / Fold change vs veh, ZDHHC17 / RFU, NOM1 / Fold change vs veh, NOM1 / RFU, ARL8B / Fold change vs veh, ARL8B / RFU, ZBTB11 / Fold change vs veh, ZBTB11 / RFU, TAMM41 / Fold change vs veh, TAMM41 / RFU, KIAA1704 /// LOC100996395 / Fold change vs veh, KIAA1704 /// LOC100996395 / RFU, ING1 / Fold change vs veh, ING1 / RFU, TRMT61B / Fold change vs veh, TRMT61B / RFU, FUBP3 / Fold change vs veh, FUBP3 / RFU, TP53 / Fold change vs veh, TP53 / RFU, TNKS2 / Fold change vs veh, TNKS2 / RFU, ZFP14 / Fold change vs veh, ZFP14 / RFU, ACTR2 / Fold change vs veh, ACTR2 / RFU, PPP3R1 / Fold change vs veh, PPP3R1 / RFU, PIK3R1 / Fold change vs veh, PIK3R1 / RFU, HNRNPA1 / Fold change vs veh, HNRNPA1 / RFU, RNF170 / Fold change vs veh, RNF170 / RFU, ZNF28 / Fold change vs veh, ZNF28 / RFU, RNGTT / Fold change vs veh, RNGTT / RFU, OGT / Fold change vs veh, OGT / RFU, BRD1 / Fold change vs veh, BRD1 / RFU, MARS / Fold change vs veh, MARS / RFU, ZNF655 / Fold change vs veh, ZNF655 / RFU, FAHD1 / Fold change vs veh, FAHD1 / RFU, BDP1 / Fold change vs veh, BDP1 / RFU, LRRCC1 / Fold change vs veh, LRRCC1 / RFU, ARID1A / Fold change vs veh, ARID1A / RFU, ZNF146 / Fold change vs veh, ZNF146 / RFU, ZNF330 / Fold change vs veh, ZNF330 / RFU, GPN3 / Fold change vs veh, GPN3 / RFU, C9orf123 / Fold change vs veh, C9orf123 / RFU, N4BP2L2 / Fold change vs veh, N4BP2L2 / RFU, ARFIP1 / Fold change vs veh, ARFIP1 / RFU, FAM179B / Fold change vs veh, FAM179B / RFU, BCL10 / Fold change vs veh, BCL10 / RFU, UHRF1BP1L / Fold change vs veh, UHRF1BP1L / RFU, BET1 / Fold change vs veh, BET1 / RFU, CNOT2 / Fold change vs veh, CNOT2 / RFU, ZNF268 / Fold change vs veh, ZNF268 / Fold change vs veh, ZNF507 / RFU, DGCR2 / Fold change vs veh, DGCR2 / RFU, WDSUB1 / Fold change vs veh, WDSUB1 / Fold change vs veh, HSP90B1 /// MIR3652 / RFU, ADSS / Fold change vs veh, ADSS / RFU, GK / Fold change vs veh, GK / RFU, ZNF148 / Fold change vs veh, ZNF148 / RFU, TAF9 / Fold change vs veh, TAF9 / RFU, SLC1A5 / Fold change vs veh, SLC1A5 / RFU, SLMO2 / Fold change vs veh, SLMO2 / RFU, ABCC4 / Fold change vs veh, ABCC4 / RFU, LOC101060439 /// RAP1B / Fold change vs veh, LOC101060439 /// RAP1B / RFU, RFX7 / Fold change vs veh, RFX7 / RFU, GTPBP10 / Fold change vs veh, GTPBP10 / RFU, CNEP1R1 / Fold change vs veh, CNEP1R1 / RFU, BIVM-ERCC5 /// ERCC5 / Fold change vs veh, BIVM-ERCC5 /// ERCC5 / RFU, ILF3 / Fold change vs veh, ILF3 / RFU 11762660_at / Fold change /veh 11762660_at / RFU VCAN (11757783_s_at) / Fold change /veh VCAN (11757783_s_at) / RFU DDX43 (11728927_at) / Fold change /veh DDX43 (11728927_at) / RFU KRT8 (11758188_x_at) / Fold change /veh KRT8 (11758188_x_at) / RFU NKD1 (11759106_at) / Fold change /veh NKD1 (11759106_at) / RFU SRD5A1 (11742802_a_at) / Fold change /veh SRD5A1 (11742802_a_at) / RFU TPSAB1 /// TPSB2 (11721975_s_at) / Fold change /veh TPSAB1 /// TPSB2 (11721975_s_at) / RFU GSTM3 (11746129_a_at) / Fold change /veh GSTM3 (11746129_a_at) / RFU IL23R (11737362_x_at) / Fold change /veh IL23R (11737362_x_at) / RFU TMEM51 (11727254_a_at) / Fold change /veh TMEM51 (11727254_a_at) / RFU PIWIL2 (11732686_x_at) / Fold change /veh PIWIL2 (11732686_x_at) / RFU ORM1 (11744905_x_at) / Fold change /veh ORM1 (11744905_x_at) / RFU CCDC152 (11743942_at) / Fold change /veh CCDC152 (11743942_at) / RFU ECM1 (11717891_a_at) / Fold change /veh ECM1 (11717891_a_at) / RFU IL23R (11748794_a_at) / Fold change /veh IL23R (11748794_a_at) / RFU TNFAIP8L3 (11732012_x_at) / Fold change /veh TNFAIP8L3 (11732012_x_at) / RFU MBOAT4 (11741988_at) / Fold change /veh MBOAT4 (11741988_at) / RFU 11764193_at / Fold change /veh 11764193_at / RFU TMEM53 (11763286_at) / Fold change /veh TMEM53 (11763286_at) / RFU MAGEB2 (11727129_at) / Fold change /veh MAGEB2 (11727129_at) / RFU TMEM200A (11744735_a_at) / Fold change /veh TMEM200A (11744735_a_at) / RFU CCDC152 (11751479_a_at) / Fold change /veh CCDC152 (11751479_a_at) / RFU FAM211A (11726209_a_at) / Fold change /veh FAM211A (11726209_a_at) / RFU RGS16 (11746705_a_at) / Fold change /veh RGS16 (11746705_a_at) / RFU VCAN (11755009_s_at) / Fold change /veh VCAN (11755009_s_at) / RFU RHOB (11743442_s_at) / Fold change /veh RHOB (11743442_s_at) / RFU RGS16 (11720943_a_at) / Fold change /veh RGS16 (11720943_a_at) / RFU RGS16 (11720944_at) / Fold change /veh RGS16 (11720944_at) / RFU, VPS4B / Fold change vs veh, VPS4B / RFU, CREB1 / Fold change vs veh, CREB1 / RFU, DNAJC13 / Fold change vs veh, DNAJC13 / RFU, GNAQ / Fold change vs veh, GNAQ / RFU, CDK5R1 / Fold change vs veh, CDK5R1 / RFU, ZRANB3 / Fold change vs veh, ZRANB3 / RFU, CUL4A / Fold change vs veh, CUL4A / RFU, CCNY / Fold change vs veh, CCNY / RFU, UFL1 / Fold change vs veh, UFL1 / RFU, COG3 / Fold change vs veh, COG3 / RFU, DIAPH2 / Fold change vs veh, DIAPH2 / RFU, SKA2 / Fold change vs veh, SKA2 / RFU, AFF3 / Fold change vs veh, AFF3 / RFU, LMF1 / Fold change vs veh, LMF1 / RFU, IPO11 / Fold change vs veh, IPO11 / RFU, DFFB / Fold change vs veh, DFFB / RFU, FOXP1 / Fold change vs veh, FOXP1 / RFU, CARD8 / Fold change vs veh, CARD8 / RFU, STRN3 / Fold change vs veh, STRN3 / RFU, ADK / Fold change vs veh, ADK / RFU, RASSF2 / Fold change vs veh, RASSF2 / RFU, WIPF1 / Fold change vs veh, WIPF1 / RFU, LARP1B / Fold change vs veh, LARP1B / RFU, RASA1 / Fold change vs veh, RASA1 / RFU, RB1 / Fold change vs veh, RB1 / RFU, PPFIA1 / Fold change vs veh, PPFIA1 / RFU, MAT2A / Fold change vs veh, MAT2A / RFU, CCT5 / Fold change vs veh, CCT5 / RFU, WDR92 / Fold change vs veh, WDR92 / RFU, CUX1 / Fold change vs veh, CUX1 / RFU, TTC7A / Fold change vs veh, TTC7A / RFU, TMEM135 / Fold change vs veh, TMEM135 / RFU, DEPTOR / Fold change vs veh, DEPTOR / RFU, CPM / Fold change vs veh, CPM / RFU, DNAJB6 / Fold change vs veh, DNAJB6 / RFU, CACNA2D3 / Fold change vs veh, CACNA2D3 / RFU, DTX4 / Fold change vs veh, DTX4 / RFU, TFCP2 / Fold change vs veh, TFCP2 / RFU, GMCL1 /// GMCL1P1 / Fold change vs veh, GMCL1 /// GMCL1P1 / RFU, AEBP2 / Fold change vs veh, AEBP2 / RFU, SNHG1 /// SNORD22 /// SNORD25 /// SNORD26 /// SNORD27 /// SNORD28 /// SNORD29 /// SNORD31 / Fold change vs veh, SNHG1 /// SNORD22 /// SNORD25 /// SNORD26 /// SNORD27 /// SNORD28 /// SNORD29 /// SNORD31 / Fold change (Aza/veh), C12orf56 (ProbeSet 11735607_a_at) / Fold change (ACY-1035/veh), C12orf56 (ProbeSet 11735607_a_at) / Fold change (Aza/veh), FGFR1OP (ProbeSet 11751329_s_at) / Fold change (ACY-1035/veh), FGFR1OP (ProbeSet 11751329_s_at) / Fold change (Aza/veh), VPS36 (ProbeSet 11739960_a_at) / Fold change (ACY-1035/veh), VPS36 (ProbeSet 11739960_a_at) / RFU SYPL1 (11715823_x_at) / Fold change /veh SYPL1 (11715823_x_at) / RFU IGFBP7 (11715501_s_at) / Fold change /veh IGFBP7 (11715501_s_at) / RFU REEP3 (11722064_at) / Fold change /veh REEP3 (11722064_at) / RFU IGLL1 (11728026_x_at) / Fold change /veh IGLL1 (11728026_x_at): dose or concentration left out as unconfirmed. The format is cell-based, human.

As for `Nc1ccc(-c2cccs2)cc1NC(=O)c1ccc2c(c1)cc(C1CC1)n2CCN1CCOCC1` [ACY-1035], the “RFU, WDSUB1” value is given as 59.59 RFU.

These data come from article PMC5218480 (PLoS ONE, 2017).
